We go through five compounds from patent US11781114B2, “Materials and methods for expansion of stem cells” (FLORIDA STATE UNIVERSITY RESEARCH FOUNDATION, INC., priority 2014, dated 2023).

Common to all, as to format: cell-based, human
For assay [1], the system named is PGE-2. The assay is described as follows: Secreted PGE-2 in conditioned media (Parameter Assay Kit). Particulars: treated 3D aggregates.
Protocol: (§1) Caspase 3/7 activity was measured by Caspase-Glo 3/7 assay systems (Promega, Madison, Wis.). Caspase-Glo 3/7 working buffer was added to triplicate samples containing aggregates and culture media in 96-well [sequence] 200 white immunology plate (Greiner Bio-One, Monroe, N.C.). The results were read by a luminescence plate reader and normalized to cell number (Biotek Instruments, Winooski, Vt.). Secreted PGE-2 and IL-6 in conditioned media were quantified using a PGE-2 Parameter Assay Kit and IL-6 DuoSet ELISA kits, respectively (R&D Systems, Minneapolis, Minn.). Total secreted PGE-2 and IL-6 were determined by subtracting cytokine concentrations in culture media controls and normalized to the cell number in the aggregates.
The test system of assay [2] is hMSC aggregates. Kind of assay: Cell survival and packing density of aggregates by DNA content (PicoGreen).
Protocol: The DNA content of the individual aggregates was used to calculate cell number. Briefly, individually collected hMSC aggregates were washed with phosphate buffered saline (PBS) and digested with proteinase K overnight. PicoGreen (Life Technologies) was added to triplicate samples and a DNA standard in a 96-well plate. The cell numbers in aggregates were determined by the PicoGreen fluorescence intensity using 9.3 pg/cell as determined in our prior study (Kim and Ma 2012). […] The packing densities were calculated using cell number divided by aggregate volume assuming a spherical shape. At least six aggregates were used in each condition.
In assay [3] the test system is hMSC aggregates. Kind of assay: hMSC aggregate formation and compaction (aggregate size) with cytoskeleton modulators. Also on record: aggregate compaction vs non-treated control: dose or concentration left out as unconfirmed. Particulars: for aggregate compaction / aggregate diameter: 0.2 to 0.6 μM; for aggregate compaction vs non-treated control: nocodazole 3D treatment. The procedure:
hMSCs from monolayer culture were trypsinized and 100 μL media containing 5,000 cells were added in each well of an ultra-low attachment (ULA) 96-well plate with round-bottom (Corning, Corning, N.Y.) for overnight. To analyze size-dependent ATP contents, aggregates containing 500, 2,000, and 5,000 cells were used following the same method. Suspended single hMSCs spontaneously self-assembled into one aggregate per well. Aggregates were cultured individually up to 7 days with media change every two days. The aggregates were tracked individually and the morphologies were imaged with an Olympus IX70 microscope (Center Valley, Pa.).
Cytochalasin D (cytoD), lysophosphatidic acid (LPA), Y-27632, nocodazole were added into culture media to final concentrations of 0.2 to 0.6 μM, 2.0 to 10.0 μM, 2.0 to 10 μM, and […], respectively. To test the temporal effects of actin modulators on aggregate formation, cells were treated with media containing cytoD and LPA during monolayer culture prior to aggregate formation (termed “2D Pretreatment”) or 12 hours after aggregate formation in ULA plates (termed “3D Treatment). Only 3D treatments were performed for Y-27632 and nocodazole.
Morphology of the aggregates was visualized using an Olympus IX70 microscope and the images recorded. The images were processed and the areas of the individual aggregates were calculated using ImageJ software (rsb.info.nih.gov/ij/). The DNA content of the individual aggregates was used to calculate cell number. Briefly, individually collected hMSC aggregates were washed with phosphate buffered saline (PBS) and digested with proteinase K overnight. PicoGreen (Life Technologies) was added to triplicate samples and a DNA standard in a 96-well plate. The cell numbers in aggregates were determined by the PicoGreen fluorescence intensity using 9.3 pg/cell as determined in our prior study (Kim and Ma 2012). DNA assay detects double-stranded DNA that may also be present in dead cells with intact DNA. However, this population in the aggregates is low, and the yield of live cells measured by DNA assay is close to cell count using other methods such as flow cytometry (Ylostalo et al. 2014). The packing densities were calculated using cell number divided by aggregate volume assuming a spherical shape. At least six aggregates were used in each condition.

Assay [4] concerns IL-6. The assay is described as follows: Secreted IL-6 in conditioned media (ELISA). Particulars: treated 3D aggregates.
Protocol: as §1
Assay [5] relates to Caspase 3/7. The assay is described as follows: Caspase-Glo 3/7 assay. The following applies: for caspase 3/7 activity in 3D aggregates: normalized to cell number.
Protocol: as §1
Assay [6] relates to hMSC aggregates. The assay is described as follows: Aggregate spreading on glass coverslip and fusion on ULA surface. Particulars: for aggregate spreading on glass coverslip / fusion of adjacent aggregates on ULA surface: aggregates treated for 5 days. The method, then:
To test re-adhesion and fusion, the aggregates from various treatment conditions were plated on glass coverslip for re-adhesion or placed adjacently on ULA surface for fusion. Images were captured with Olympus IX70 microscope and analyzed by ImageJ software.

In assay [7] the test system is hMSC aggregates. Kind of assay: Morphology by SEM, H&E histology and F-actin staining. The following applies: for cell morphology in the aggregates (SEM and histology) / outer boundary of aggregates (H&E, F-actin staining of sections): treated aggregates vs control aggregates; for hMSC morphology on 2D planar surface (F-actin staining): nocodazole treatment. The method, then: For SEM, the aggregate samples were fixed in 4% paraformaldehyde (PFA), dehydrated through a graded series of ethanol, incubated in hexamethyldisilazane, and vacuum dried overnight. The samples were mounted onto carbon-coated chucks, sputter-coated with gold in an argon atmosphere for 4 minutes at 2 kV, and analyzed on a SEM (JSM-7401F) (JEOL, Tokyo, Japan). For immunostaining, the cells were fixed with 4% PFA, permeabilized with 0.5% Triton X-100, blocked with 1.0% BSA, incubated with primary antibody, and imaged with an Olympus IX70 (Center Valley, Pa.) microscope. For histology, hematoxylin-eosin (H&E) staining was performed following the prior reported method (Kim and Ma 2012). hMSC aggregates were fixed in 10% formalin, dehydrated and embedded in paraffin wax; 10 μm sections were cut and stained with Lerner-2 Hematoxylin (Lerner Laboratories, Pittsburgh, Pa.) and Eosin-Y w/ Phloxine (Richard-Allan Scientific, Kalamazoo, Mich.) by standard procedures (Kim and Ma 2012). Images were captured with Olympus IX70 microscope with MagnaFire SP 2.1B software.

The test system of assay [8] is hMSC aggregates. The assay is described as follows: hMSC aggregate formation and compaction (aggregate size) with cytoskeleton modulators. The following applies: cytoD 2D pretreatment, concentration above 0.6 μM (high concentration).
The mark [9] stands for this setting: Q-VD-OPh, after three days of culture.
The mark [10] stands for this setting: 0.6 μM cytoD 3D treatment, day 5.

Entries after “also recorded” stand apart in the source; their conditions may differ.

In the case of `CC(C)[C@H](NC(=O)c1ccc2ccccc2n1)C(=O)N[C@@H](CC(=O)O)C(=O)COc1c(F)cccc1F` [Q-VD-OPh], in assay [1], the “PGE-2 secretion of 3D aggregates” value is “attenuated to basal levels”. In addition, in assay [2] (setting [9]), the “cell packing density vs control” value was “increased cell packing density; also recorded: higher packing density” and the “cell viability / survival vs control” value is “improved cell survival; also recorded: significantly increased cell viability”. Further, the “aggregate compaction vs control” value in assay [3] (setting [9]) is “significantly reduced cell compaction”. Also, the “IL-6 secretion of 3D aggregates” value in assay [4] was “attenuated to basal levels”.

For `C[C@@H](N)[C@H]1CC[C@H](C(=O)Nc2ccncc2)CC1` [Y-27632], the “PGE-2 secretion of 3D aggregates” value in assay [1] was “limited effects”. Moreover, in assay [5], the “caspase 3/7 activity in 2D adherent culture” value is “increased caspase 3/7 activity” and the “caspase 3/7 activity in 3D aggregates” value was “highest caspase 3/7 activity; also recorded: increased caspase 3/7 activity”. Also, in assay [6], the “aggregate spreading on glass coverslip” value was “readily re-adhered and spread on glass coverslips”; the “fusion of adjacent aggregates on ULA surface” value (“fusion of adjacent aggregates” for short) is recorded as “fused when adjacently placed on ULA surface; also recorded: reduced tendency to fuse”. Moreover, the “cell viability / cell survival vs control aggregates” value in assay [2] (10 μM Y-27632, 5 days of treatment) is recorded as “lower than non-treated control; also recorded: comparable or even less”. Besides, the “decrease in cell packing density compared to control aggregates” value in assay [2] (10 μM Y-27632, day 5) is 38.7%. In addition, the “cell packing density vs control (in words)” value in assay [2] (Y-27632, day 5) was “significantly lower”. In assay [7], the “cell morphology in the aggregates (SEM and histology)” value is “large interstitial space and exhibit round morphology; also recorded: loosely packed and exhibited spherical morphology with abundant interstitial space”; the “outer boundary of aggregates (H&E, F-actin staining of sections)” value is reported as “disintegrated outer boundaries; also recorded: discontinuous outer boundary; also recorded: loosely packed with no spreading at the boundary”. Further, in assay [3] (10 μM Y-27632, day 5), the “increase in aggregate diameter compared to control aggregates” value is 6.7%. Further, the aggregate compaction result in assay [3] (Y-27632 3D treatment, 10 μM) is given as “prevented aggregate compaction; also recorded: reduced aggregate compaction”. Also, in assay [4], the “IL-6 secretion of 3D aggregates” value is “limited effects”.

With `C=C1[C@@H](C)[C@H]2[C@H](Cc3ccccc3)NC(=O)[C@]23[C@H](OC(C)=O)/C=C/[C@@](C)(O)C(=O)[C@@H](C)C/C=C/[C@H]3[C@@H]1O` [cytoD, Cytochalasin D], the entries for the “hMSC aggregation (aggregate formation)” value in assay [8] and in assay [8] (listed as CytoD) were “disrupted hMSC aggregation” and “prevented hMSC aggregation”, respectively. Also, the “PGE-2 secretion of 3D aggregates” value in assay [1] was “limited effects”. The “caspase 3/7 activity in 2D adherent culture” value in assay [5] is recorded as “significantly increased caspase 3/7 activity”. Moreover, the “caspase 3/7 activity in 3D aggregates” value in assay [5] is “comparable apoptotic activity”. Moreover, the “aggregate spreading on glass coverslip” value in assay [6] is reported as “abolishes; also recorded: did not spread on glass coverslips; also recorded: completely prevented aggregate spreading on glass coverslip”. In assay [6], the “fusion of adjacent aggregates” value is recorded as “abolishes; also recorded: nor fused; also recorded: completely prevented”. Besides, the “fusion and adhesion properties of hBMSC aggregates” value in assay [6] (hBMSC aggregates on ULA plates / glass) is “abrogated their fusion and adhesion properties; also recorded: abrogates these properties”. Besides, the “cell viability / cell survival vs control aggregates” value in assay [2] (setting [10]) was “significantly reduced cell viability; also recorded: significantly lower cell survival”. The “packing density vs control aggregates” value in assay [2] (setting [10]) is “significantly reduced; also recorded: significantly lower”. The “cell morphology in the aggregates (SEM and histology)” value in assay [7] is “large interstitial space and exhibit round morphology; also recorded: loosely packed and exhibited spherical morphology with abundant interstitial space”. Moreover, the “outer boundary of aggregates (H&E, F-actin staining of sections)” value is recorded as “loosely packed with no spreading at the boundary” in assay [7], “disintegrated outer boundaries; also recorded: discontinuous outer boundary” in assay [7] (listed as CytoD) and “disrupted the mechanically polarized outer layer” in assay [7] (listed as cytochalasin D). Moreover, the aggregate compaction result is recorded as “prevented aggregate compaction” in assay [3] (cytoD 2D pretreatment, lower concentrations) and “reduced compaction” in assay [3] (cytoD 2D pretreatment, lower concentrations, listed as CytoD). Moreover, the aggregate integrity result in assay [3] (cytoD 3D treatment, 0.6 μM) is “remained intact”. Besides, the “aggregate compaction / aggregate diameter” value is “dose-dependent reduction on compaction” in assay [3] (cytoD 3D treatment) and “reduced compaction; also recorded: Dose-dependent decline of aggregate diameters” in assay [3] (cytoD 3D treatment, listed as CytoD). Further, the “IL-6 secretion of 3D aggregates” value in assay [4] is recorded as “limited effects”.

Turning to `COC(=O)Nc1nc2cc(C(=O)c3cccs3)ccc2[nH]1` [nocodazole], the “aggregate spreading on glass coverslip” value in assay [6] is “readily spread on adherent surface; also recorded: readily re-adhered and spread on glass coverslips; also recorded: spread on glass coverslip”. In addition, the “fusion of adjacent aggregates” value in assay [6] is given as “fuse with neighboring aggregates; also recorded: fused when adjacently placed on ULA surface; also recorded: readily fused”. The results for the “hMSC morphology on 2D planar surface (F-actin staining)” value in assay [7] and in assay [7] (listed as Nocodazole) were “drastic changes of cell morphology” and “significantly altered hMSC morphology”, respectively. Moreover, the “aggregate compaction vs non-treated control” value in assay [3] is “comparable contractility with control aggregates; also recorded: comparable or higher compaction”; in assay [3] (listed as Nocodazole), “faster compaction”.

Turning to lysophosphatidic acid [LPA], in assay [5], the “caspase 3/7 activity in 2D adherent culture” value is reported as “increased caspase 3/7 activity” and the “caspase 3/7 activity in 3D aggregates” value is recorded as “increased caspase 3/7 activity”. Besides, in assay [6], the “aggregate spreading on glass coverslip” value is “readily re-adhered and spread on glass coverslips; also recorded: spread on glass coverslip”; the “fusion of adjacent aggregates” value is given as “fused when adjacently placed on ULA surface; also recorded: readily fused”. For the same compound, the “viability / cell survival vs control” value in assay [2] (LPA up to 10 μM, 5 days 3D treatment) is “comparable cell survival; also recorded: limited effects”. For the same compound, the “cell packing density vs control” value in assay [2] (LPA, 5 days 3D treatment) is reported as “comparable”. For the same compound, the “aggregate compaction vs control” value in assay [3] (LPA up to 10 μM, 2D pretreatment and 3D treatment) is on record as “minimal impact on aggregate compaction; also recorded: declined at the same rate as control; also recorded: limited effects”.
